# Laboratory results taken from paper PMC5934670 (Nucleic Acids Research, 2018).
# Assays:
# [1] = molecular target: T1, TorR (Escherichia coli, UniProt P38684); experiment: Genomic SELEX-chip, rise of specific DNA binding; details: phosphodonor, no TorS; phosphorylation itself not measured; covalent
# T1 sequence (P38684 1-230): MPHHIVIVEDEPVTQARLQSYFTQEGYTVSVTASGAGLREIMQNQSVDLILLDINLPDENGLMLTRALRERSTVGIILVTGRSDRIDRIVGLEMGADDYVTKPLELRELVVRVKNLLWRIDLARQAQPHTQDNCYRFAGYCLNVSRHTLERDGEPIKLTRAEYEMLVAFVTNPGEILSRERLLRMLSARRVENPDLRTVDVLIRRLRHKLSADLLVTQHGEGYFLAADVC
# [2] = molecular target: T2, KdpE (Escherichia coli, UniProt P21866); experiment: Genomic SELEX-chip, rise of specific DNA binding; details: phosphodonor, no KdpD; phosphorylation itself not measured; covalent
# T2 sequence (P21866 1-225): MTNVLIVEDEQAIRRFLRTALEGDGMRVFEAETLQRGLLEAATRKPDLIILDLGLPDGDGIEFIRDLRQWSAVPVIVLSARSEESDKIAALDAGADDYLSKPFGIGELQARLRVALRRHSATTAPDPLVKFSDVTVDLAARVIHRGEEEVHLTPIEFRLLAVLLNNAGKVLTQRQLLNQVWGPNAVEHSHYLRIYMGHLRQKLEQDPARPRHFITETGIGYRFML
# [3] = molecular target: LacI (Escherichia coli, UniProt P03023); experiment: Genomic SELEX-chip, loss of DNA binding; details: inducer; increasing IPTG; lac operator DNA
# [4] = molecular target: T3, NanR (Escherichia coli, UniProt P0A8W0); experiment: Genomic SELEX-chip, change of DNA-binding specificity; details: effector; genomic DNA library
# T3 sequence (P0A8W0 1-263): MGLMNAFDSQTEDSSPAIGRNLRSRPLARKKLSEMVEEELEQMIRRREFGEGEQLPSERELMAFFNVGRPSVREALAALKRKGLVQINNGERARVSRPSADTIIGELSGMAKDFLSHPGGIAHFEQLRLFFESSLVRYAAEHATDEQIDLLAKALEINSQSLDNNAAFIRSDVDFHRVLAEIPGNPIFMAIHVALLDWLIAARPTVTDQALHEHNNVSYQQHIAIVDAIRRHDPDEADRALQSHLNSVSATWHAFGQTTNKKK
# LacI, sequence (P03023 whole entry): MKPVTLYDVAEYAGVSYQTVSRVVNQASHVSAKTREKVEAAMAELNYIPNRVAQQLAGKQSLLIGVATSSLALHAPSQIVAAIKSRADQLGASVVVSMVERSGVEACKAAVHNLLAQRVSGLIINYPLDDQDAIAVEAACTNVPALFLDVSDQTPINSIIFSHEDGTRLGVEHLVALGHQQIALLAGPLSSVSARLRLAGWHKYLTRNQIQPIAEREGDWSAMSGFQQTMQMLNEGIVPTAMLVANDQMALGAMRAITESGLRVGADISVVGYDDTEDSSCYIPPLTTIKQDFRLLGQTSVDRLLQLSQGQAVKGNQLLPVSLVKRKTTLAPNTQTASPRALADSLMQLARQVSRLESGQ
structure (smiles),measurement,setting,value
CC(=O)OP(=O)(O)O [AcP],"Genomic SELEX-chip, rise of specific DNA binding",[1],the level of TorR binding to this target was higher in the presence of AcP
same,"Genomic SELEX-chip, rise of specific DNA binding",[2],The binding affinity to this single target increased in the presence of AcP
CC(C)S[C@@H]1O[C@H](CO)[C@H](O)[C@H](O)[C@H]1O [IPTG],"Genomic SELEX-chip, loss of DNA binding",[3],level of LacI binding at the lacZ promoter region decreased concomitant with the increased addition of IPTG
CC(=O)N[C@H]1[C@H]([C@H](O)[C@H](O)CO)OC(O)(C(=O)O)C[C@@H]1O (stereo partly shown) [Neu5Ac],"Genomic SELEX-chip, change of DNA-binding specificity",[4],The binding of NanR to these non-specific sites disappeared in the presence of Neu5Ac
